Where two headings read alike, the source gives them in different places.
Tested on: subjects with PAH
Conditions: for Subjects who died: 12 weeks
Method: All adverse effects (AEs) reported during the course of the study were reported and summaries of all AEs were prepared showing frequencies and percentages of: • (a) subjects with at least 1 AE; • (b) subjects with possibly or probably drug-related AEs; • (c) subjects with at least 1 serious AE (SAE); • (d) subjects with an AE leading to study discontinuation; and • (e) subjects who died. […]
The safety population was defined as all randomized subjects who received at least 1 dose of study drug. Subjects were considered as belonging to a treatment group according to the highest actual treatment dose received. Any subject who received 10 mg ambrisentan on any day was included in the 10 mg group for safety analyses in the entire study. Any subject who received 5 mg ambrisentan on any day and never received 10 mg ambrisentan on any day was included in the 5 mg group for safety analyses in the entire study. Otherwise, any subject who received only placebo was included in the placebo group for safety analyses in the study.

[1] = male subjects, 10 mg once daily

## COC(c1ccccc1)(c1ccccc1)[C@H](Oc1nc(C)cc(C)n1)C(=O)O [ambrisentan]
5 mg once daily
  subjects who died during the study or within 30 days of the last dose: 1.5%
  Subjects who died: 1 (1.5) subjects (% of safety populati
10 mg once daily
  subjects who died during the study or within 30 days of the last dose: 1.5%
  Subjects who died: 1 (1.5) subjects (% of safety populati
Combined 5 mg and 10 mg groups
  Subjects who died: 2 (1.5) subjects (% of safety populati
In vivo
  effect on PT, INR or weekly warfarin-type anticoagulant dose: no effect
  male fertility hormones and serial semen samples: did not suggest that ambrisentan was associated with an adverse effect on male reproductive potential
  mean changes from baseline at Week 12 for serum ALT and AST: no notable mean changes
  subjects who developed elevated serum aminotransferase concentrations >3×ULN: None
Male subjects, 5 mg once daily
  change from baseline in testosterone concentration at Week 12: -0.099 ± 3.48 nmol/L
[1]
  change from baseline in testosterone concentration at Week 12: -0.099 ± 3.48 nmol/L
  change over baseline in FSH concentration at Week 12: +1.83 IU/liter
